# Results from patent publication US20240092863A1, “ANTIMICROBIAL TARGET” (priority 2020, published 2024).
# Where a SMILES comes first, the peptide text is derived from it. Bridges are numbered along the chain shown (N, C = ends). Where no end group is shown, it is not given here. [ ]: non-standard residue; d: D form. S5 = C=CCCC[C@](C)(N)C(=O)O
# Legend:
# trypsin = assay: Protease stability: trypsin digestion, LC-MS; assay type: in vitro ADME; settings: 100 ug/ml peptide, trypsin 2 mg/ml, 37° C., 1 hour
# chymotrypsin = assay: Protease stability: chymotrypsin digestion, LC-MS; assay type: in vitro ADME; settings: 100 ug/ml peptide, chymotrypsin 2 mg/ml, 25° C., 1 hour
# S. aureus SH1000 [1] = tested on: S. aureus SH1000
# Description: Protease stability was assessed using trypsin, chymotrypsin and human serum. Peptides at 100 μg/ml were incubated in 100 mM ammonium bicarbonate+2 mM calcium chloride were digested using trypsin (2 mg/ml), chymotrypsin (2 mg/ml) or human serum (25% (v/v)) for 1 or 18 hours. Digestion was performed at 37° C. for trypsin and human serum, and 25° C. for chymotrypsin. Reaction was stopped with 2.5% formic acid for trypsin and chymotrypsin. Human serum proteins were precipitated with acetonitrile. Supernatants were analysed on LC-MS. Stability to bacterial proteases was also analysed in cultures of S. aureus SH100 and P. aeruginosa PA01. 20 nM peptides in Keratinocyte-Serum Free Medium (KFSM) were incubated with mid-log phase cultures of bacteria for 4 hours. Bacteria were then removed by centrifugation and the supernatants used in bacterial adhesion assays, as described below.
# Human cells in 96-well plates were washed with 200 ul HBSS and incubated with 200 μl 5% (w/v) BSA for 1 hour at 37° C., washed twice with 200 μl HBSS prior to incubation for 1 hour at 37° C. with peptides diluted in DMEM, or DMEM alone for control well. After removal of peptide solutions, wells were infected for 1 hour at 37° C. with 50 μl bacteria suspended in DMEM at optimised multiplicities of infection (MOI). […]
# P. aeruginosa PA01 = assay: Stability to bacterial cultures (P. aeruginosa PA01), residual activity in infection assay on HaCaT; assay type: in vitro ADME, Pseudomonas aeruginosa; settings: 4 hrs incubation with growing culture
# S. aureus [2] = assay: S. aureus adhesion to HaCaT human keratinocyte cells (bacterial adhesion assay, CFU); assay type: cell-based, Staphylococcus aureus; settings: 200 nM peptide; FIG. 1B
# Description: HaCaT human keratinocyte cells were cultured in DMEM supplemented with 10% (v/v) foetal bovine serum. Cells were subcultured by trypsinisation. For bacterial adhesion assays, HaCaT cells (10,000 cells/well) were grown overnight in 96-well plates.
# For infection assays, bacterial were cultured from a single agar plate colony overnight in 5 ml of the appropriate growth medium. Then cultures were harvested by centrifugation, washed with 10 ml PBS, re-suspended in growth medium and incubated to achieve an OD600 equivalent to 5×10^8 CFU/ml. Cultures were again harvested by centrifugation, washed twice with PBS and re-suspended in DMEM at an appropriate density.
# S. aureus SH1000 [3] = assay: Mouse in vivo skin infection model; design: species or system Staphylococcus aureus; settings: mice, 200 nM peptide mixed with S. aureus SH1000 in a bandage on depilated skin; FIG. 9
# Description: C57/Bl6 mice were shaved to produce a bare area of approximately 2×2 cm. Depilatory cream was applied to depilate this area. A bandage was applied that contained a saline solution containing 200 nM of mouse 800-CAP, its scrambled control or human 800ii, and S. aureus SH1000. After 5 days, the mice were sacrificed and the depilated skin processed to release bacteria. The infection was assessed as CFU, and normalised to untreated control mice (=100). The experiment was performed 3 times using groups of 3 mice for each condition. Data are shown as the means of each separate experiment. Significance of the difference from 100 was calculated using a one-sample t test.
# S. aureus [4] = settings: reference [7]; cited from earlier work
# S. aureus SH1000 [5] = settings: cited from earlier work
# [6] = Protease stability: trypsin digestion, LC-MS; assay type: in vitro ADME; settings: 100 ug/ml peptide, trypsin 2 mg/ml, 37° C., 18 hours; read-out: peptide still undigested in trypsin at 18 hours
# [7] = Protease stability: chymotrypsin digestion, LC-MS; assay type: in vitro ADME; settings: 100 ug/ml peptide, chymotrypsin 2 mg/ml, 25° C., 18 hours; read-out: peptide still undigested in chymotrypsin at 18 hours
compound,measurement,setting,value
DEPQRETLKAIHYALN [800-Cap],digestion by trypsin after 1 hour,trypsin,completely digested
same,digestion by chymotrypsin after 1 hour,chymotrypsin,completely digested
same,peptide activity degraded by incubation with S. aureus SH1000 culture,S. aureus SH1000 [1],~50%
same,peptide activity degraded by incubation with P. aeruginosa PA01 culture,P. aeruginosa PA01; residual activity on S. aureus SH1000 / HaCaT,~50%
SEQ ID NO: 17: shorter form of peptide 800-Cap (DEPQRETL; first short form of 800-Cap),inhibitory activity against S. aureus adhesion to human keratinocyte line HaCaT,S. aureus [2],little or no inhibitory activity
CC[C@H](C)[C@H](NC(=O)[C@H](C)NC(=O)[C@H](CCCCN)NC(=O)[C@H](CC(C)C)NC(=O)[C@]1(C)CCCC=CCCC[C@](C)(NC(=O)[C@H](CCC(=O)O)NC(=O)[C@@H](N)CC(=O)O)C(=O)N[C@@H](CCC(N)=O)C(=O)N[C@@H](CCCNC(=N)N)C(=O)N[C@@H](CCC(=O)O)C(=O)N1)C(=O)N[C@@H](Cc1c[nH]cn1)C(=O)N[C@@H](Cc1ccc(O)cc1)C(=O)N[C@@H](C)C(=O)N[C@@H](CC(C)C)C(=O)N[C@@H](CC(N)=O)C(=O)O [800i] (H-DE[S5]QRE[S5]LKAIHYALN-OH; staple 3-7; N-terminus and C-terminus assumed),resistance of peptide activity to P. aeruginosa PA01 culture,P. aeruginosa PA01,resistant
1: synthetic peptide with helix-preserving Ala residues replacing Glu26/Arg29 (DAPQAETLKAIHYALN; Glu26/Arg29 mutant 800-Cap peptide) [compound 1],inhibitory activity against S. aureus adhesion to human keratinocyte line HaCaT,S. aureus [2],no activity
mouse equivalent of 800-CAP: the mouse equivalent of 800-CAP; probably SEQ ID NO: 6 (DEPQRETLKAIHMALD; listed as Mus musculus),bacterial load in skin after 5 days,S. aureus SH1000 [3],significantly reduced
800: short peptide derived from the primary sequence of the tetraspanin CD9 large extracellular domain (EC2); previously published (EPQRETLKAIHYALN; 800 peptide sequence) [compound 800],"functional activity, time and dose dependence",S. aureus [4],functionally active in a time and dose-dependent manner
same,reduction of adherence of Staphylococcus aureus binding to human keratinocyte cells,S. aureus [4],can reduce the adherence
same,activity against S. aureus adhesion to a wound model of human skin,"S. aureus SH1000 [5]; previously published (Ventress et al., 2016)",active
same,bacterial burden in a 3D model of human skin,S. aureus SH1000 [5]; reference [7],effective in lowering bacterial burden
CC[C@H](C)[C@@H]1NC(=O)[C@@](C)(NC(=O)[C@H](CCCCN)NC(=O)[C@H](CC(C)C)NC(=O)[C@@H](NC(=O)[C@H](CCC(=O)O)NC(=O)[C@H](CCCNC(=N)N)NC(=O)[C@H](CCC(N)=O)NC(=O)[C@@H]2CCCN2C(=O)[C@H](CCC(=O)O)NC(=O)[C@@H](N)CC(=O)O)[C@@H](C)O)CCCC=CCCC[C@@](C)(C(=O)N[C@@H](CC(C)C)C(=O)N[C@@H](CC(N)=O)C(=O)O)NC(=O)[C@H](Cc2ccc(O)cc2)NC(=O)[C@H](Cc2c[nH]cn2)NC1=O [800ii] (H-DEPQRETLK[S5]IHY[S5]LN-OH; staple 10-14; N-terminus and C-terminus assumed),"remaining at 18 h, 100 µg/ml",[6],50%
same,digestion by trypsin after 1 hour,trypsin,not digested at all
same,"remaining at 18 h, 100 µg/ml",[7],20%
same,digestion by chymotrypsin after 1 hour,chymotrypsin,not digested at all
same,resistance of peptide activity to P. aeruginosa PA01 culture,P. aeruginosa PA01,resistant
SEQ ID NO: 18: shorter form of peptide 800-Cap (KAIHYALN; second short form of 800-Cap),inhibitory activity against S. aureus adhesion to human keratinocyte line HaCaT,S. aureus [2],little or no inhibitory activity
peptide 7: synthetic peptide with helix-preserving Ala residues replacing Pro27/Thr31 (DEAQREALKAIHYALN; Pro27/Thr31 mutant 800-Cap peptide),inhibitory activity against S. aureus adhesion to human keratinocyte line HaCaT,S. aureus [2],retained full activity
6: synthetic peptide with helix-preserving Ala residues replacing Ile35/Leu39 (DEPQRETLKAAHYAAN; Ile35/Leu39 mutant 800-Cap peptide) [compound 6],inhibitory activity against S. aureus adhesion to human keratinocyte line HaCaT,S. aureus [2],no activity
